For data set [1] the following is noted: human, in vivo.
Data set [2] in a line: clinical. The settings on record: human, in vivo.

One molecule from patent US20180313858A1, “QUANTIFICATION OF DRUGS IN BIOLOGICAL SAMPLES” (Indivior UK Limited, priority 2015, published 2018) can be followed below.

Marks after values point to notes of the source that are not given here.

A word on the AUC(0-inf): it is the area under the concentration-time curve extrapolated to infinity. High values mean more exposure, low ones less exposure. By AUC(0-t) is commonly meant the area under the concentration-time curve up to a stated or last time point. A high value points to more exposure. As usually defined, the Cmax is the maximum level reached in the sampled fluid or tissue. The term Tmax denotes the time at which the peak concentration occurs. As to `C=CCN1CC[C@]23c4c5ccc(O)c4O[C@H]2C(=O)CC[C@@]3(O)[C@H]1C5` [naloxone], in data set [1], the plasma concentration is 0.068 ng/mL, the “t1/2 (apparent terminal half-life)” value is 2.21 (61.1)^f h and the “time for which analyte was quantifiable in plasma” value was found to be 36 h. In data set [2], the total exposure AUC(0-inf) is 0.0772 ng·h/mL, the exposure AUC(0-t) stood at 0.0681 ng·h/mL, the peak concentration (Cmax) was 0.0266 ng/mL and the Tmax was determined as 45 min.
